Assays:
[1] = molecular target: rat alpha4beta2 receptor (Rattus norvegicus, UniProt P09483+P12390); test: Antagonism of alpha4beta2 receptors in oocytes (residual inhibition of ACh response after drug); format: cell-based; conditions: xenopus oocytes
Experimental: Oocytes were prepared and recordings made as described previously (de Fiebre, et al., 1995). Frogs were anesthetized by submersion in 0.1% (3)-aminobenzoic acid ethyl ester and several lobes of the ovary surgically removed through a small incision in the abdomen wall. Oocytes were freed from the follicle cells by treatment with collagenase (in calcium-free Barth's solution: 88 mM NaCl, 1 mM KCl, 15 mM Hepes pH 7.6, 0.33 mM MgSO4, 0.1 mg/ml gentamicin sulfate) for 2 hr at room temperature and Stage 5 oocytes were isolated. Oocytes were rinsed and stored at 18° C. in Barth's saline (88 mM NaCl, 1 mM KCl, 15 mM Hepes pH 7.6, 0.3 mM Ca(NO3)2, 0.41 mM CaCl2, 0.82 mM MgSO4, 0.1 mg/ml gentamicin sulfate) before and after microinjection with RNA. Microinjection was conducted with a Drummond Scientific "Nanoject Variable" automatic injector. Oocytes were injected with a 50 nl solution of specified rat nicotinic subunit mRNA species (2-10 mg/ml; derived from the cDNA containing HIP 306 plasmid kindly provided by Dr. Jim Boulter, Salk Institute) and incubated 2-7 days at 18° C. before electrophysiological recording. electrophysiological recordings, oocytes were perfused in a Warner Instruments RC-8 recording chamber with a perfusion solution containing 115 mM NaCl, 2.5 mM KCl, 10 mM Hepes pH 7.2, 1.8 mM CaCl2 and 1 μM atropine to block muscarinic responses. Perfusion was continuous at a rate of 10 ml/min. Drags were diluted in perfusion solution and applied using a solenoid valve to switch from perfusion to drug solutions. Current responses to drug administration were studied under two electrode voltage clamp at a holding potential of -70 mV using a Dagan Corp. TEV-200 voltage clamp connected to a 386-SX IBM computer using a TL-1 DMA interface (Axon Instruments). […] Drug responses are analyzed with PClamp software (Axon Instruments). […]
Antagonist properties subsequent to agonist activity were measured as a decrease in responsiveness to ACh applied 5 min after compound-application, normalized to ACh application instead of the anabaseine-derivative (FIG. 13A AND FIG. 13B).

[2] = test system: rat primary neocortical neurons; conditions: Shimohama et al., in press; cited from earlier work

Sequence of rat alpha4beta2 receptor (P09483 31-630): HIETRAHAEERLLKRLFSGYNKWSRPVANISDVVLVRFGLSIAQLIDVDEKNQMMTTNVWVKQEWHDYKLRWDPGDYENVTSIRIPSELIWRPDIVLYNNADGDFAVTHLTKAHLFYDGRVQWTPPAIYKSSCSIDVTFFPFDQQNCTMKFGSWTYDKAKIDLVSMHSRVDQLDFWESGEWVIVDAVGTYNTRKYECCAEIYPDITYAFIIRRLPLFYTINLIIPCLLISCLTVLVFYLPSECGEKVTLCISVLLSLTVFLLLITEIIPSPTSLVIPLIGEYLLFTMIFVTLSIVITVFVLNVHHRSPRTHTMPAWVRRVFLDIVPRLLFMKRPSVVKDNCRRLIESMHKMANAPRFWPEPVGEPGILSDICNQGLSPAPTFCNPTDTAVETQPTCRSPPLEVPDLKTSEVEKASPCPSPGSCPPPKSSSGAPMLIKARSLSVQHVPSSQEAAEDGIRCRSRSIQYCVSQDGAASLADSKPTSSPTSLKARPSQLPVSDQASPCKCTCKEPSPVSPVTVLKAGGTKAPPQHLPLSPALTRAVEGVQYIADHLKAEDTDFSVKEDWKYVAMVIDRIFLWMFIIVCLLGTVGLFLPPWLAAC
Sequence of rat alpha4beta2 receptor (P12390 25-500): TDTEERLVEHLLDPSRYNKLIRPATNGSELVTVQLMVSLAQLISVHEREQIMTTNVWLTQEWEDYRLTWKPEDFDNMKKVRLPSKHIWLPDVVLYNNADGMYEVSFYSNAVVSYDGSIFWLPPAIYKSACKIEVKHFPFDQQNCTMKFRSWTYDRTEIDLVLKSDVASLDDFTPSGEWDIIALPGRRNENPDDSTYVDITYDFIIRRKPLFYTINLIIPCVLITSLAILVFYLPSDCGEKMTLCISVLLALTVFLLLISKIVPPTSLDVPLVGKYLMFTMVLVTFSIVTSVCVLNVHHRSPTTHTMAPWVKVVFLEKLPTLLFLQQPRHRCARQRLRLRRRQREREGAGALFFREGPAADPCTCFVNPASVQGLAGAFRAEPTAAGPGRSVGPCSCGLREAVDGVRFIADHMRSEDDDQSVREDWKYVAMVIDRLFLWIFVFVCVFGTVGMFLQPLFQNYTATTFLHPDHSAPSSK

| SMILES | alpha4beta2 antagonism: % of antagonism of acetylcholine administered after drug [1] | activity against NMDA-receptor activation (in words) [2] |
| --- | --- | --- |
| COc1ccccc1/C=C/C=C1\CCCN=C1c1cccnc1 [2-MeOCA, E,E-3-(2-Methoxycinnamylidene)anabaseine] | 10 | – |
| COc1ccc(/C=C2\CCCN=C2c2cccnc2)c(OC)c1 [DMXB, 3-(2,4-Dimethoxybenzylidene) anabaseine] | – | neuroprotective activity |

Source: patent US5977144A (priority 1997, dated 1999)
